In data set [1] the test system is Leishmania amazonensis. As to the kind of experiment: Antileishmanial activity against Leishmania […] MHOM/IN/80/DD8 promastigotes assessed as reduction in parasites for 48 hrs by resazurin dye based assay. The conditions noted are these: MHOM/IN/80/DD8, 48 h. In kind it is functional, organism-based. For orientation: Resazurin is reduced to fluorescent resorufin, in cell work by metabolically active cells.

A short description of data set [2]: Selectivity index, ratio of CC50 for mouse J774 cells to IC50 for antileishmanial activity against Leishmania […] MHOM/IN/80/DD8 promastigotes by resazurin dye based assay. In kind it is toxicity. As to conditions: read-out: Selectivity Index.
Data set [3] concerns Leishmania donovani. In words: Antileishmanial activity against Leishmania donovani MHOM/Br/79/Maria promastigotes assessed as reduction in parasites for 48 hrs by resazurin dye based assay. In kind it is functional, organism-based.
The nature of data set [4]: Selectivity index, ratio of CC50 for mouse J774 cells to IC50 for antileishmanial activity against Leishmania donovani MHOM/Br/79/Maria promastigotes by resazurin dye based assay. The conditions noted are these: read-out: Selectivity Index. In kind it is toxicity.
In the next data set the test system is J774. In words: Cytotoxicity against mouse J774 cells assessed as reduction in cell viability after 24 hrs by resazurin dye based assay. In kind it is functional.
Data set [5] deals with Leishmania amazonensis. In words: Antileishmanial activity against Leishmania […] MHOM/IN/80/DD8 amastigotes infected in mouse J774 cells assessed as reduction in parasites for 48 hrs by resazurin dye based assay. The format is functional, organism-based. The conditions noted are these: MHOM/IN/80/DD8, J774, 48 h.
A short description of data set [6]: Selectivity index, ratio of CC50 for mouse J774 cells to IC50 for antileishmanial activity against Leishmania […] MHOM/IN/80/DD8 amastigotes by resazurin dye based assay. The format is toxicity. The conditions noted are these: read-out: Selectivity Index.
Data set [7] relates to Leishmania donovani. As to the kind of experiment: Antileishmanial activity against Leishmania donovani MHOM/Br/79/Maria amastigotes infected in mouse J774 cells assessed as reduction in parasites for 48 hrs by resazurin dye based assay. In kind it is functional, organism-based. The conditions noted are these: J774, 48 h.
The nature of data set [8]: Selectivity index, ratio of CC50 for mouse J774 cells to IC50 for antileishmanial activity against Leishmania donovani MHOM/Br/79/Maria amastigotes by resazurin dye based assay. As to conditions: read-out: Selectivity Index. In kind it is toxicity.

With `CC1(Cc2ccc([N+](=O)[O-])cc2)c2ccccc2Cn2cccc21` (stereo not drawn), the IC50 – broadly, the concentration that gives 50% inhibition – stood at 157 µM with Leishmania amazonensis [1] and 159 µM in the data set on Leishmania donovani [3]. Also, the selectivity ratio in data set [2] was more than 2; in [4], more than 1.97. Besides, the CC50 (usually the concentration giving 50% cytotoxicity) with J774 is not below 314 µM.
Regarding `COc1cc2c(cc1OC)C(C)(Cc1cc(C(F)(F)F)cc(C(F)(F)F)c1)c1cccn1C2` (stereo not drawn), the IC50 in the data set with Leishmania amazonensis [1] stood at 39.6 µM; in the data set on Leishmania donovani [3] it was 111 µM. For the same molecule, the results for the selectivity ratio in data set [2] and in data set [4] were 1.18 and 0.42, respectively. For the same molecule, the CC50 in the data set with J774 was 46.8 µM.
On the same counts, the results for `COc1cc2c(cc1OC)C(C)(CC#N)c1cccn1C2` (stereo not drawn) are 309 µM, 226 µM, more than 1.14, more than 1.57 and not below 354 µM.
In the case of `COc1cc2c(cc1OC)C(C)(C/C=C/c1ccccc1)c1cccn1C2` (stereo not drawn), the IC50 in the data set on Leishmania amazonensis [1] stood at 12.2 µM; with Leishmania donovani [3] it was 33.7 µM; with Leishmania amazonensis [5] it was 69.3 µM; in the data set on Leishmania donovani [7], 16.7 µM. Moreover, the selectivity ratio was more than 23 in [2], more than 8.27 in [4], more than 4.02 in data set [6] and more than 16.6 in data set [8]. Also, in the data set on J774, the half-maximal cytotoxic concentration (CC50) is not below 278 µM.
For `C=CCC1(C)c2cc(OC)c(OC)cc2Cn2cccc21` (stereo not drawn), the IC50 in the data set with Leishmania amazonensis [1] was determined as 23.3 µM; in the data set with Leishmania donovani [3] it was 124 µM; in the data set on Leishmania amazonensis [5], 43.5 µM; in the data set on Leishmania donovani [7], 256 µM. Besides, the selectivity ratio in [2] was more than 15.2; in data set [4] it was more than 2.84; in [6] it was more than 8.1; in [8] it was more than 1.38. Further, the CC50 in the data set with J774 was not below 353 µM.
For `CC1(Cc2ccc([N+](=O)[O-])cc2)c2cc3c(cc2Cn2cccc21)OCO3` (stereo not drawn), the IC50 in the data set with Leishmania amazonensis [1] worked out at 8 µM; in the data set on Leishmania donovani [3], 30.4 µM; in the data set on Leishmania amazonensis [5], 77.1 µM; in the data set on Leishmania donovani [7], 68.7 µM. In addition, the selectivity ratio was more than 34.5 in data set [2], more than 9.09 in data set [4], more than 3.58 in data set [6] and more than 4.02 in data set [8]. In the data set with J774, the CC50 was not below 276 µM.
For the molecule `COc1ccc(CC2(C)c3cc(OC)c(OC)cc3Cn3cccc32)cc1` (stereo not drawn), the IC50 with Leishmania amazonensis [1] stood at 26.4 µM; in the data set with Leishmania donovani [3] it was 47.4 µM; in the data set on Leishmania amazonensis [5], 51.6 µM; in the data set on Leishmania donovani [7], 45 µM. Moreover, the selectivity ratio is more than 10.4 in data set [2], more than 5.8 in [4], more than 5.34 in data set [6] and more than 6.12 in data set [8]. Moreover, the CC50 in the data set on J774 is not below 275 µM.
As for `COc1cc2c(cc1OCc1ccccc1)Cn1cccc1C2(C)CC#N` (stereo not drawn), the IC50 in the data set with Leishmania amazonensis [1] is 24.8 µM; with Leishmania donovani [3], 34.4 µM. Moreover, the selectivity ratio in data set [2] is 7.86; in data set [4], 5.68. Also, the CC50 with J774 stood at 195 µM.
Take `COc1cc2c(cc1OC)C(C)(Cc1cc3ccc4cccc5ccc(c1)c3c45)c1cccn1C2` (stereo not drawn): the IC50 stood at 36.7 µM in the data set with Leishmania amazonensis [1] and 86 µM in the data set with Leishmania donovani [3]. Moreover, the selectivity ratio is more than 5.95 in data set [2] and more than 2.54 in [4]. The CC50 with J774 is not below 219 µM.
Regarding `CC1(CC#N)c2cc3c(cc2Cn2cccc21)OCO3` (stereo not drawn), the IC50 is 77.4 µM with Leishmania amazonensis [1] and 120 µM with Leishmania donovani [3]. Also, the figures for the selectivity ratio in data set [2] and in data set [4] were more than 4.85 and more than 3.13, respectively. For the same molecule, the CC50 in the data set on J774 was not below 376 µM.
As for `COc1ccc2c(c1)Cn1cccc1C2(C)CC#N` (stereo not drawn), the IC50 in the data set on Leishmania amazonensis [1] was 123 µM; in the data set with Leishmania donovani [3], 360 µM. The selectivity ratio in data set [2] was more than 3.21; in data set [4] it was more than 1.1. Moreover, in the data set with J774, the CC50 is not below 396 µM.
Regarding `COc1cc2c(cc1OC)C(Cc1ccc([N+](=O)[O-])cc1)(C(F)(F)F)c1cccn1C2` (stereo not drawn), the IC50 was found to be 3.93 µM with Leishmania amazonensis [1], 16.4 µM with Leishmania donovani [3], 56.7 µM with Leishmania amazonensis [5] and 22.2 µM in the data set on Leishmania donovani [7]. For the same molecule, the selectivity ratio in [2] is more than 58.8; in data set [4] it was more than 14.1; in data set [6], more than 4.08; in data set [8], more than 10.4. For the same molecule, in the data set on J774, the CC50 is not below 231 µM.
Take `CC1(CC#N)c2ccc(OCc3ccccc3)cc2Cn2cccc21` (stereo not drawn): the IC50 amounted to 15.8 µM in the data set on Leishmania amazonensis [1], 60.2 µM in the data set with Leishmania donovani [3] and 44.8 µM in the data set on Leishmania donovani [7]. Besides, the figures for the selectivity ratio in [2], in data set [4] and in data set [8] were 14, 3.69 and 4.97, respectively. Also, in the data set on J774, the CC50 stood at 222 µM.
For the molecule `COc1ccc(CC2(C)c3cc(OC)c(OC)cc3Cn3cccc32)cc1OC` (stereo not drawn), the IC50 in the data set on Leishmania amazonensis [1] is 3.3 µM; with Leishmania donovani [3], 38.3 µM; in the data set on Leishmania amazonensis [5], 60.8 µM; in the data set on Leishmania donovani [7] it was 46.3 µM. In addition, the selectivity ratio was more than 77 in data set [2], more than 6.63 in [4], more than 4.18 in data set [6] and more than 5.49 in data set [8]. Further, the CC50 in the data set on J774 was not below 254 µM.
On to `COc1cc2c(cc1OC)C(C)(Cc1ccc([N+](=O)[O-])cc1)c1cccn1C2` (stereo not drawn), for which the IC50 was 18 µM in the data set on Leishmania amazonensis [1], 79.9 µM with Leishmania donovani [3], 56.1 µM in the data set with Leishmania amazonensis [5] and 29.6 µM in the data set on Leishmania donovani [7]. For the same molecule, the selectivity ratio in data set [2] is more than 14.7; in data set [4], more than 3.31; in data set [6], more than 4.7; in data set [8] it was more than 8.92. Besides, the CC50 in the data set on J774 is not below 264 µM.
With `COc1ccc2c(c1OC)Cn1cccc1C2(C)CC#N` (stereo not drawn), the IC50 with Leishmania amazonensis [1] is 171 µM. In addition, the selectivity ratio in data set [2] is more than 2.07. Moreover, the CC50 with J774 is not below 354 µM.
With `COc1ccc(OC)c2c1Cn1cccc1C2(C)CC#N` (stereo not drawn), in the data set on Leishmania amazonensis [1], the IC50 was 93.9 µM. In addition, the selectivity ratio in [2] is more than 3.77. The CC50 with J774 was not below 354 µM.
As for `CC1(CC#N)c2ccc(F)cc2Cn2cccc21` (stereo not drawn), the IC50 worked out at 96.5 µM with Leishmania amazonensis [1] and 192 µM in the data set on Leishmania donovani [3]. The selectivity ratio in data set [2] was more than 4.31; in [4] it was more than 2.17. Also, in the data set on J774, the CC50 was not below 416 µM.
Take `COc1cc2c(cc1OC)C(C)(Cc1ccccc1)c1cccn1C2` (stereo not drawn): the IC50 came to 17.1 µM in the data set with Leishmania amazonensis [1], 30.3 µM in the data set with Leishmania donovani [3], 33.6 µM in the data set with Leishmania amazonensis [5] and 55 µM in the data set with Leishmania donovani [7]. The selectivity ratio in data set [2] was more than 17.5; in data set [4] it was more than 10.1; in data set [6] it was more than 8.93; in data set [8] it was more than 5.45. In addition, the CC50 in the data set on J774 is not below 300 µM.
`CCCCCCCCCCCCCCCCOP(=O)([O-])OCC[N+](C)(C)C` [MILTEFOSINE]: the IC50 worked out at 30.7 µM with Leishmania amazonensis [1], 47.6 µM with Leishmania amazonensis [5] and 0.37 µM in the data set with Leishmania donovani [7]. The selectivity ratio in data set [2] amounted to 4.43; in data set [4], 906; in [6], 2.85; in [8], 369. For the same molecule, in the data set on J774, the CC50 came to 136 µM.

(Values after ChEMBL document CHEMBL4837195, “Palladium-mediated synthesis and biological evaluation of C-10b substituted Dihydropyrrolo[1,2-b]isoquinolines as antileishmanial agents” (Eur J Med Chem, 2021).)
